Reference: ChEMBL document CHEMBL1157539, “Thousands of chemical starting points for antimalarial lead identification” (Nature, 2010)

Tested on: Plasmodium falciparum
Assay: GSK_TCMDC: Inhibition of Plasmodium falciparum 3D7 in whole erythrocytes, using parasite LDH activity as an index of growth.
Type: functional, organism-based
Settings: Plasmodium falciparum, 3D7

Nc1nc(N)c2c(ccc3c2ccn3Cc2ccc3c(c2)OCO3)n1
XC50: 3.2 nM

Cc1cc(NCCc2ccccc2)nc(NC(=N)Nc2cccc(Cl)c2)n1
XC50: 181 nM

CNC(=O)c1ccccc1Nc1nc(Nc2cccnc2)ncc1C
XC50: 101 nM

Nc1ncc(-c2ccc(NC(=O)Nc3cc(C(F)(F)F)ccc3F)cc2)c(N)n1
XC50: 719 nM

CN(Cc1cccc(O)c1)C1CCN(c2cc(NC(=O)c3cccc(F)c3)ccn2)CC1
XC50: 847 nM

Cc1cc(F)ccc1[C@H]1CNCCN1C(=O)N(C)C(C)(C)c1cc(C(F)(F)F)cc(C(F)(F)F)c1
XC50: 594 nM

Cc1ccc2c(Cc3cnc(N)nc3N)cc(C)c(N)c2n1
XC50: 1420 nM

Cc1ccc(OCC2CCN(c3ncc(C(=O)NCCCN4CCCC4=O)cc3Cl)CC2)cc1
XC50: 1260 nM

c1ccc(Oc2ccc(Nc3nncc4ccccc34)cc2)cc1
XC50: 686 nM

COc1cccc(CNC(=O)[C@H]2CNCCN2C(=O)CCCc2ccccc2)c1
XC50: 787 nM

Nc1nc(N)c(-c2ccccc2)c(=O)[nH]1
XC50: 1000 nM

CO/C(=C\C=C\c1cc2cc(Cl)c(Cl)cc2[nH]1)C(=O)NCCCNC12CC3CC(CC(C3)C1)C2
XC50: 730 nM

COc1cccc(NC(=O)NC2CCN(CCCCCNC(=O)/C=C/c3ccc(Cl)c(Cl)c3)CC2)c1
XC50: 777 nM

CC(C)(C)[C@@H](Nc1ccc(C#N)c2ccccc12)C(=O)NC1(Cc2ccc(O)cc2)CCCC1
XC50: 1440 nM

COc1ccc(NC(=S)NC(NC(=O)CF)C(Cl)(Cl)Cl)cc1[N+](=O)[O-] (stereo not drawn)
XC50: 479 nM

CC(C)Cc1cn(-c2nc(-c3nc4ccccc4[nH]3)cs2)c2cc(Cl)ccc12
XC50: 483 nM

CC(C)CCNC(=O)C1Cc2c([nH]c3cc(Br)ccc23)C2(CCN(CCc3ccccc3)CC2)N1 (stereo not drawn)
XC50: 910 nM

O=C(N[C@@H](CC1CCCCC1)C(=O)NCCN1CCCCC1)c1ccc(O)c(-c2cccc(C(F)(F)F)c2)c1
XC50: 831 nM

CC1CN(Cc2cccc(-c3ccc(-c4nc5ccccc5[nH]4)cc3)c2)CC(C)O1 (stereo not drawn)
XC50: 857 nM

CCN(CC)CCCN(C(=O)Nc1ccc(C#N)cc1)c1nc(-c2ccc(F)cc2)cs1
XC50: 650 nM

CC[C@H](C)CNC(=O)c1cncc(-c2cccc(CN3CCC(N4CCCC4)CC3)c2)c1
XC50: 1170 nM

CC(C)N1CCN(C(CN2CCN(CCCOc3cccc(-c4ccccc4)c3)CC2)c2ccc(F)cc2)CC1 (stereo not drawn)
XC50: 892 nM

COc1ccc(C(=O)NCc2ccccc2-c2ccc(C(C)(C)C)cc2)cc1O
XC50: 99.6 nM

COc1ccc(OCCCON)cc1
XC50: 167 nM

Cc1cccc(S(=O)(=O)Nc2cccc(CCN3CCC(N4CCCCC4)CC3)c2)c1
XC50: 1330 nM

CN1CC[C@@H](Oc2cc(C(=O)NCc3ccc(Cl)c(Cl)c3)ccc2C(F)(F)F)C1
XC50: 1250 nM

CN(c1ccc(NC(=O)Nc2cccc(Cl)c2)cc1)c1ccnc(N)n1
XC50: 628 nM

Clc1ccc(/N=C(/NCCCCCCCN/C(=N\c2ccc(Cl)cc2)Nc2ccc(Cl)cc2)Nc2ccc(Cl)cc2)cc1
XC50: 321 nM

CCOC(=O)C(C(=O)OCC)c1nc(C)ns1
XC50: 471 nM

CC(C)CCCC(C)(C)NC[C@@H](O)[C@H](Cc1ccccc1)NC(=O)c1cccc(OCC2CC2)c1
XC50: 843 nM

O=S(=O)(NCCN1CCCC1)c1ccc(-c2cccc(CNCCc3cccs3)c2)cc1
XC50: 928 nM

CC(C)CNCc1ccc(-c2cccc(CN(C(=O)NC3CCCCC3)C3CCN(Cc4ccccc4)CC3)c2)cc1
XC50: 805 nM

CC1CCN(CC[C@H]2CCCN2S(=O)(=O)c2cccc(NC(=O)Nc3ccc(C(F)(F)F)cc3)c2)CC1
XC50: 722 nM

CCN(CCO)Cc1ccc(-c2ccc(NS(=O)(=O)c3cccc4cccnc34)cc2)cc1
XC50: 985 nM

C[C@H](Cc1ccc(CCc2ccc(C[C@@H](C)NC[C@H](O)c3cccc(Cl)c3)cc2)cc1)NC[C@H](O)c1cccc(Cl)c1
XC50: 935 nM

NS(=O)(=O)c1cccc(Nc2nccc(-c3c(-c4cccc(NC(=O)c5c(F)cccc5F)c4)nn4ccccc34)n2)c1
XC50: 73.6 nM

CCCCCc1cc(OC(C)=O)c2c(c1)OC(C)(C)C=C2C1=CCN(Cc2ccccc2)CC1
XC50: 926 nM

OC(CNC1CCCCC1)Cn1c2ccc(Br)cc2c2cc(Br)ccc21 (stereo not drawn)
XC50: 303 nM

CCC(C)NS(=O)(=O)c1ccc2nc(Nc3ccc(C)cc3)n(C3CCCCC3C)c2c1 (stereo not drawn)
XC50: 592 nM

COc1ccc2nccc(N3CCC(O)(CCNCc4ccc5c(n4)NC(=O)CS5)CC3)c2n1
XC50: 648 nM

CC(C)(CNCc1cccc(Oc2ccccc2)c1)c1nc(-c2ccnc(N)n2)c(-c2ccc(Cl)c(O)c2)[nH]1
XC50: 760 nM

CC(C)N1CCN(C(CN2CCN(CCCOc3ccc4nonc4c3)CC2)c2ccc(F)cc2)CC1 (stereo not drawn)
XC50: 796 nM

Cc1cc(NC2CCCC2)nc(Nc2ccccc2F)n1
XC50: 926 nM

FC(F)(F)c1cccc2c(NN=Cc3ccccc3)ccnc12
XC50: 624 nM

COc1ccc(NC(=O)c2ccc(-c3nc(-c4ccc(Cl)cc4)cs3)cc2)cc1N1CCN(C)CC1
XC50: 921 nM

CC(=O)Nc1ccc(C(=O)Nc2cccc(-c3ccc(-c4nc5cc(F)ccc5[nH]4)s3)c2)cn1
XC50: 233 nM

CCN1CCN(C(=O)NC(C(=O)N2CCCC(COc3ccc(Cc4ccccc4)cc3)C2)c2cccs2)C(=O)C1=O (stereo not drawn)
XC50: 479 nM

O=C(Cc1cc(F)cc(F)c1)NC1CCN(c2ccnc3cc(Cl)ccc23)C1 (stereo not drawn)
XC50: 250 nM

Cc1nc(C)c(-c2ccc(Cl)cc2)c(O)c1I
XC50: 674 nM

CC1Cc2ccccc2N1CC(=O)Nc1cc(C(F)(F)F)ccc1-n1cncn1 (stereo not drawn)
XC50: 321 nM

O=C(Nc1ccc(C(=O)Oc2cccc3ccccc23)cc1)N[C@@H](Cc1ccc(O)cc1)C(=O)NC1CCN(Cc2ccc(O)cc2)C1 (stereo partly drawn)
XC50: 906 nM

Cc1cccc(OC(C)C(=O)Nc2cc(C(F)(F)F)ccc2N2CCOCC2)c1 (stereo not drawn)
XC50: 237 nM

CN(C)c1ccc(C=C2SC(=N)N(c3nccs3)C2=O)cc1
XC50: 461 nM

O=c1ccc2ncc(Cl)c3c2n1CC3CN1CCC(NCc2cc3c(cn2)OCCO3)CC1 (stereo not drawn)
XC50: 961 nM

Cc1c(C)n(C2CCCC2)c2ncnc(OC3CCN(CC(=O)NC4CC4)CC3)c12
XC50: 790 nM

Cc1cc(NCCCOc2ccc(Cl)cc2)nc(NCc2ccccc2)n1
XC50: 782 nM

Oc1cc(NC[C@@H]2CCC[C@@H]2NCc2ccc(Cl)c(Cl)c2)nc2ccccc12
XC50: 602 nM

CC(=O)Nc1ccc(CNCCc2ccc(NC(=O)c3cc(Cl)cc(Cl)c3)cc2)cc1
XC50: 684 nM

COc1ccc2c(=O)c3ccc(OC)cc3[nH]c2c1
XC50: 810 nM

CCOC(=O)c1nc(-c2cc(Cl)nc(Cl)c2)[nH]c1NC(=S)NCCCN1CCOCC1
XC50: 925 nM

CC1CC(C)CN(CC(O)CNC(=O)Nc2ccc(Br)cc2)C1 (stereo not drawn)
XC50: 1050 nM

O=C(Nc1ccc2c(c1)CCC2)N[C@H]1CCN(Cc2ccc(OCCCN3CCCCC3)cc2)C1
XC50: 864 nM

COc1cccc(C(=O)NC(c2ccc(Cl)cc2Cl)c2cc(Cl)c3cccnc3c2O)c1 (stereo not drawn)
XC50: 454 nM

CCc1c(CCNCCCCCCNCCc2ccc(OC)cc2)ccc(OC)c1OC
XC50: 871 nM

CCCCn1c(N)c(N(Cc2ccco2)C(=O)C=Cc2cc(OC)c3c(c2)OCCO3)c(O)nc1=O
XC50: 946 nM

CCCN(CCC)C(=O)c1cc(C(=O)N[C@@H](Cc2ccccc2)[C@H](O)CNCc2cccc(OC)c2)cc(N2CCCCS2(=O)=O)c1
XC50: 549 nM

CCOc1ccc(C(C)NC(=O)c2ccc(OC)c(Br)c2)cc1OCC (stereo not drawn)
XC50: 706 nM

Nc1ccc2[nH]cc(C3CCN(CC4CCC(NC(=O)/C=C/c5ccc(Cl)c(Cl)c5)CC4)CC3)c2n1 (stereo not drawn)
XC50: 731 nM

O=C(Nc1cccc(-c2ccc(CN3CCCC3)cc2)c1)c1cccc(Cl)c1
XC50: 430 nM

c1ccc(CCNCc2cccc(-c3ccc(CNc4ccc5ncccc5c4)cc3)c2)cc1
XC50: 810 nM

CCOc1cc(Cc2cnc(N)nc2N)cc(OC)c1OC
XC50: 913 nM

CCc1nc(N)nc(N)c1-c1ccc(F)cc1
XC50: 407 nM

Cc1cccc2nc(-c3cccc(-c4ccc(C(=O)NCc5ccccc5S(C)(=O)=O)cc4)c3)[nH]c12
XC50: 750 nM

COc1ccc(CON2C(=N)N=C(N)NC2(C)C)cc1OC
XC50: 6.06 nM

O=C(Nc1ccc2c(c1)CCN2C1CCN(Cc2cccc3cc[nH]c23)C1)c1ccco1 (stereo not drawn)
XC50: 1210 nM

CC(C(=O)OCCOCn1cnc2c(=O)[nH]c(N)nc21)N(C)C(=O)OC(C)(C)C (stereo not drawn)
XC50: 1000 nM

COc1ccc(Nc2nc(NCc3cccc(NS(C)(=O)=O)c3)cc(-c3ccc(OC)cc3)n2)cc1
XC50: 1220 nM

Cc1c2c(nn1-c1ccccc1)C(c1ccccc1)N(c1ccccc1)C2=O (stereo not drawn)
XC50: 147 nM

Cc1c(C(=O)NCc2ccncc2)sc2nc(-c3cccc([N+](=O)[O-])c3)cn12
XC50: 913 nM

COc1ccc(C2C(C(=O)Nc3ccc4c(c3)OCO4)c3cc(OC)c(OC)cc3C(=O)N2C)cc1 (stereo not drawn)
XC50: 1040 nM

Cc1cccc2nc(-c3cccc(-c4ccc(NC(=O)CC5NC(=O)c6ccccc65)cc4)c3)[nH]c12 (stereo not drawn)
XC50: 289 nM

Cc1cc(N(C)CCCN2CCCCC2)nc(Nc2ccc(Cl)cc2)n1
XC50: 188 nM

COc1ccc(NC(=O)[C@H](CC(C)C)Nc2ccnc(Nc3ccccc3)n2)cc1
XC50: 1570 nM

OC1CCCN(Cc2cccc(-c3ccc(-c4nc5cc(C(F)(F)F)ccc5[nH]4)cc3)c2)C1 (stereo not drawn)
XC50: 690 nM

Cc1ncccc1-c1cccc2c(NC(=O)Nc3ccc4nccc(N5CCN(C)CC5)c4c3)cccc12
XC50: 632 nM

CO/C(=C\C=C\c1cc2cc(Cl)c(Cl)cc2[nH]1)C(=O)N[C@H]1CN2CCC1CC2
XC50: 1210 nM

O=C(NCCN1CCCC1)c1ccc(-c2cccc(-c3nc4cc(F)ccc4[nH]3)c2)cc1
XC50: 774 nM

Fc1ccc2[nH]cc(CCN3CCC(CNCc4ccccc4)CC3)c2c1
XC50: 33 nM

O=S(=O)(NCCN1CCCC1)c1ccc(-c2ccc(CNCc3ccsc3)cc2)cc1
XC50: 853 nM

N#Cc1ccc2c(c1)CCN(CCC1CCC(NC(=O)c3cc4cccc([N+](=O)[O-])c4[nH]3)CC1)C2 (stereo not drawn)
XC50: 684 nM

CC[C@H](C)CNC(=O)c1cccc(-c2ccc(CN3CCC(N4CCCC4)CC3)cc2)n1
XC50: 788 nM

O=C([C@H]1CCCCN1c1ccc([N+](=O)[O-])c2ccccc12)N1CCN(c2ncccn2)CC1
XC50: 199 nM

CCc1nc2c(cnn2CC)c(NC2CCOCC2)c1CNC(=O)N1CCOCC1
XC50: 892 nM

Cc1nc(C)c(C2CCC(c3ccc(Cl)cc3)CC2)c(O)c1Cl (stereo not drawn)
XC50: 51.8 nM

O=C(Nc1ccc(Cl)cc1)c1ccc(CN2CCCN(Cc3cccc(O)c3)CC2)cc1
XC50: 388 nM

COc1cc2c(C3CCN(CC4CCC(NC(=O)/C=C/c5ccc(Cl)c(Cl)c5)CC4)CC3)c[nH]c2cn1 (stereo not drawn)
XC50: 423 nM

CCOc1cc2ncnc(Nc3ccc(OCc4c(F)cccc4F)c(OC)c3)c2cc1OCC
XC50: 821 nM

CC(=O)Nc1ccc(OCCCCCOc2ccc(NC(C)=O)cc2Cl)c(Cl)c1
XC50: 833 nM
